These results are taken from patent US20240269298A1, “PHOSPHONYL DERIVATIVE, AND COMPOSITION AND PHARMACEUTICAL APPLICATION THEREOF” (XIZANG HAISCO PHARMACEUTICAL CO., LTD., priority 2021, published 2024).

Like-named read-outs stand apart in the source and are kept apart here. Where only a bound is given, the exact number is not on record here.

Data set [1] deals with NCI-H1975 (EGFR-L858R-T790M) cells. Nature of the data set: Inhibitory activity on proliferation of NCI-H1975 (EGFR-L858R-T790M) cells (CTG, 72 h). It counts as cell-based. The conditions noted are these: Homo sapiens. The gist of the method: (§1)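 Cells plated at 1000/well (NCI-H1975, RPMI1640+10% FBS) or 3000/well (A431, DMEM+10% FBS), dosed next day with compounds (0.1% DMSO final) for 72 h at 37 °C, 5% CO2. Viability by CTG luminescence, normalised to vehicle control; IC50 from nonlinear-regression dose-survival curves.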

For the next data set, the system named is A431 (EGFR-WT) cells. The experiment in a line: Inhibitory activity on proliferation of A431 (EGFR-WT) cells (CTG, 72 h). It counts as cell-based. The conditions noted are these: Homo sapiens, A-431. Summed up:
as §1

Data set [2] has as its system NCI-H1975 EGFR-L858R-T790M-C797S cells. Nature of the data set: Inhibitory activity on proliferation of NCI-H1975 EGFR-L858R-T790M-C797S cells (CellTiter-Glo, 72 h). The data set is classed as cell-based. The conditions noted are these: Homo sapiens. As for the experimental part:
NCI-H1975 EGFR-L858R-T790M-C797S cells were cultured in an incubator at 37° C. with 5% CO2, and the culture medium was RPMI1640+10% FBS+100 μg/mL hygromycin. The cells in the logarithmic phase were collected, and the cell suspension was adjusted to an appropriate concentration with a hygromycin-free culture medium, and then plated on a 96-well plate at a density of 1500 cells/well and a volume of 90 μL. 10 μL of the compounds at different concentrations were added, and a vehicle control group (cells plus DMSO) was provided, wherein the concentration of DMSO was 0.1%. The cell culture plate was cultured in an incubator at 37° C. with 5% CO2 for 72 hours. After the incubation was completed, according to operation instructions for a CellTiter-Glo kit (Promega, G7572), 50 μL of CTG solution, which was already pre-melted and equilibrated to room temperature, was added to each well, and the mixtures were uniformly mixed for 2 min using a microplate shaker. The plate was placed at room temperature for 10 min, and then […] signal values were measured using a microplate reader (Envision 2104). […] was processed based on formula (2), and using the GraphPad Prism 5.0 software and nonlinear regression model, S-shaped dose-survival curves were plotted, and IC50 values were calculated. wherein Vsample was the readout of the drug-treated group, and Vvehicle control was the readout of the control group.
A general note: In ATP-based viability assays light output follows the ATP content of the culture.

The nature of data set [3]: Pharmacokinetic test in mice. The data set is classed as in vivo. The conditions noted are these: male, ICR, mouse, po, administration i.g. (10 mg/kg), plasma. Summed up:
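Male ICR mice (20-25 g), fasted 12-14 h before dosing and fed 4 h after, received a single intravenous or intragastric dose. Orbital plasma sampled from 0 to 24 h (5 min-24 h points); LC-MS/MS quantitation for PK parameters and bioavailability.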

Data set [4] has as its target T1, EGFR protein in NCI-H1975 EGFR-L858R-T790M-C797S cells (Homo sapiens, UniProt P00533, C797S/L858R/T790M).
T1 construct: expressed in transfected cells; host or cells: NCI-H1975 EGFR-L858R-T790M-C797S (kept under hygromycin selection)
Nature of the data set: Degradation activity on EGFR protein in NCI-H1975 EGFR-L858R-T790M-C797S cells, Method I (western blot, 72 h). The conditions noted are these: 72 h incubation, EGFR protein relative to DMSO control. The data set is classed as cell-based. The protocol: Protein sample preparation: NCI-H1975 EGFR-L858R-T790M-C797S cells were cultured in an incubator at 37° C. with 5% CO2, and the culture medium was RPMI1640+10% FBS+100 μg/mL hygromycin. The cells in the logarithmic phase were collected, and the cell suspension was adjusted to an appropriate concentration with a hygromycin-free culture medium, plated on a 6-well plate at a density of 200000 cells/well and a volume of 2 mL, and cultured overnight in an incubator at 37° C. with 5% CO2. The next day, the compounds at different concentrations were added. DMSO control wells were provided, wherein the concentration of DMSO in all wells was 0.1%. The 6-well plate was cultured in an incubator at 37° C. with 5% CO2 for 72 h, and then 30 μL of RIPA lysates (Beyotime, Cat. P0013B) containing protease inhibitors (Beyotime, Cat. P0013B) were added. The mixtures were lysed on ice for 30 min. Centrifugation was carried out at 13000 rpm/min at 4° C. for 20 min to collect protein supernatant samples, and protein quantification was performed by the BCA method. Samples for western blot detection were prepared.
Western blot detection: 20 μg of protein samples were added to each well, subjected to polyacrylamide gel electrophoresis and transferred to a membrane, and then diluted anti-EGFR (CST, Cat. 4267S) and […] (Kangchen, Cat. KC-5G4) antibodies were added and incubated overnight at 4° C. After washing the membrane, diluted goat anti-rabbit (Licor, Cat. 926-32211) and goat anti-mouse (Licor, Cat. 926-68070) antibodies were added and incubated in the dark for 45 min. Scanning and detection at wavelengths of 700 nm and 800 nm were performed with a far-infrared imaging system (Odyssey).
According to formula (3), the expression level of EGFR protein in the cells relative to the DMSO control group was calculated after incubation with different concentrations of compounds. wherein EGFRcompound was the fluorescence value of EGFR protein after incubation with compounds, and EGFRvehicle was the fluorescence value of EGFR protein in the DMSO control group. Using the Origin 9.2 software, the drug concentration DC50 values when the expression level of EGFR protein was 50% relative to the DMSO control group were calculated.
Background: Immunoblotting shows a protein as a band on a membrane.

[5] abbreviates: read-out: IC50 (value in brackets).

T1 sequence (P00533 25-1210 T790M/C797S/L858R): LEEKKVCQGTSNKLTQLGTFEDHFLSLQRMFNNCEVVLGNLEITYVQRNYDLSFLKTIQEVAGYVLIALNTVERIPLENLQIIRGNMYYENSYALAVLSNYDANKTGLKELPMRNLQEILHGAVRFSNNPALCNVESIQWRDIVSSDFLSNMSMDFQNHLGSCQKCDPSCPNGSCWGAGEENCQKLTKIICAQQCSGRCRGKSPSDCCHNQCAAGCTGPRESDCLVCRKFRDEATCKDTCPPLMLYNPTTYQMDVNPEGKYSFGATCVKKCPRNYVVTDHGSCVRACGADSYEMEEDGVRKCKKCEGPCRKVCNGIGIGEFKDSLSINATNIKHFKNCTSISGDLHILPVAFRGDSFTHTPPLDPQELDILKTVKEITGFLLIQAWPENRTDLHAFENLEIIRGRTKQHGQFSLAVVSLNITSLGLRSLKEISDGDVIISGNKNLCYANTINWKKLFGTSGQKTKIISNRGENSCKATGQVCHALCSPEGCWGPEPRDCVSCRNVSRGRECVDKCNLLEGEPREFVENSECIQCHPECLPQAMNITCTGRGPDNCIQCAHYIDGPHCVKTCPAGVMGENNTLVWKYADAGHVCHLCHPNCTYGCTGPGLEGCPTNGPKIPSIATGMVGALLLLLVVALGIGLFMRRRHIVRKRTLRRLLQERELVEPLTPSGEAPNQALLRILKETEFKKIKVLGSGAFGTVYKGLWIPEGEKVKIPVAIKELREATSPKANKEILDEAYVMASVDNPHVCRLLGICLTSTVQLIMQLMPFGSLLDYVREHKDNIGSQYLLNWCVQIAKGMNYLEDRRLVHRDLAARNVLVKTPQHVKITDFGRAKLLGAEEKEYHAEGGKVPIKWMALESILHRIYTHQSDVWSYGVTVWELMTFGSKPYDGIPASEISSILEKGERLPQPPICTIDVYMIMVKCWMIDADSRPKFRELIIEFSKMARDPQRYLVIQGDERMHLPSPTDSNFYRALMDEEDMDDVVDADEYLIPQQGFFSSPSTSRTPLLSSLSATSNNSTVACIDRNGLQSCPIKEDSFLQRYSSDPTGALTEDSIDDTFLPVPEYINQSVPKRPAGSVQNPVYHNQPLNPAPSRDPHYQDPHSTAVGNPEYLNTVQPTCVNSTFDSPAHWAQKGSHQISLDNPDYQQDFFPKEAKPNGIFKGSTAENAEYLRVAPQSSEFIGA

For the compound `COc1cc(N2CCN(CC3CCN(c4ccc5c(c4)C(=O)N(C4CCC(=O)NC4=O)C5=O)C3)CC2)c(-c2cnn(C)c2)cc1Nc1ncc(Br)c(Nc2ccc(-c3ccccc3)cc2P(C)(C)=O)n1` (stereo not drawn) [Compound 67, 5-(3-((4-(4-((5-bromo-4-((3-(dimethylphosphoryl)-[1,1′-biphenyl]-4-yl)amino)pyrimidin-2-yl)amino)-5-methoxy-2-(1-methyl-1H-pyrazol-4-yl)phenyl)piperazin-1-yl)methyl)pyrrolidin-1-yl)-2-(2,6-dioxopiperidin-3-yl)isoindoline-1,3-dione], the IC50 in data set [1] (read-out: IC50 (class symbol)) was under 100 nM; in data set [1] (setting [5]), 37 nM; with A431 (EGFR-WT) cells, at least 10000 nM; in data set [2] (read-out: IC50 (class symbol)) it was under 200 nM; in data set [2] (read-out: IC50 (value)), 115 nM. The same compound had an exposure (AUC) in data set [3] of 70900 ng·h/mL. Besides, the half-life in data set [3] was 3.86 h. The same compound yielded a DC50 in data set [4] of under 100 nM.

Consider `COc1cc(N2CCN(CC3CCN(c4ccc5c(c4)C(=O)N(C4CCC(=O)NC4=O)C5=O)C3)CC2)c(-c2cnn(C)c2)cc1Nc1ncc(Cl)c(Nc2ccc(-c3ccccc3)cc2P(C)(C)=O)n1` (stereo not drawn) [Compound 68, 5-(3-((4-(4-((5-chloro-4-((3-(dimethylphosphoryl)-[1,1′-biphenyl]-4-yl)amino)pyrimidin-2-yl)amino)-5-methoxy-2-(1-methyl-1H-pyrazol-4-yl)phenyl)piperazin-1-yl)methyl)pyrrolidin-1-yl)-2-(2,6-dioxopiperidin-3-yl)isoindoline-1,3-dione], for which the IC50 in data set [1] (read-out: IC50 (class symbol)) is under 100 nM; in data set [1] (setting [5]), 66 nM; in the data set with A431 (EGFR-WT) cells, at least 10000 nM; in data set [2] (read-out: IC50 (class symbol)) it was 200 to 500 nM; in data set [2] (read-out: IC50 (value)), 280 nM. In addition, the AUC in data set [3] was found to be 53200 ng·h/mL. Besides, in data set [3], the half-life was 3.47 h. Also, the DC50 in data set [4] is under 100 nM.

Consider `COc1cc(N2CCN(CC3CCN(c4ccc5c(c4)C(=O)N(C4CCC(=O)NC4=O)C5=O)CC3)CC2)c(-c2cnn(C)c2)cc1Nc1ncc(Br)c(Nc2ccc(-c3ccccc3)cc2P(C)(C)=O)n1` (stereo not drawn) [Compound 77, 5-(4-((4-(4-((5-bromo-4-((3-(dimethylphosphoryl)-[1,1′-biphenyl]-4-yl)amino)pyrimidin-2-yl)amino)-5-methoxy-2-(1-methyl-1H-pyrazol-4-yl)phenyl)piperazin-1-yl)methyl)piperidin-1-yl)-2-(2,6-dioxopiperidin-3-yl)isoindoline-1,3-dione], for which the IC50 is under 100 nM in data set [1] (read-out: IC50 (class symbol)); 32 nM in data set [1] (setting [5]); at least 10000 nM in the data set on A431 (EGFR-WT) cells; under 200 nM in data set [2] (read-out: IC50 (class symbol)); 46 nM in data set [2] (read-out: IC50 (value)). Further, in data set [3], the AUC worked out at 47300 ng·h/mL. The same compound had a half-life in data set [3] of 5.79 h. This compound also had a DC50 in data set [4] of under 100 nM.

Take `COc1cc(N2CCC(N3CCN(c4ccc5c(c4)C(=O)N(C4CCC(=O)NC4=O)C5=O)CC3)CC2)c(-c2cnn(C)c2)cc1Nc1ncc(Br)c(Nc2ccc(-c3ccccc3)cc2P(C)(C)=O)n1` (stereo not drawn) [Compound 81, 5-(4-(1-(4-((5-bromo-4-((3-(dimethylphosphoryl)-[1,1′-biphenyl]-4-yl)amino)pyrimidin-2-yl)amino)-5-methoxy-2-(1-methyl-1H-pyrazol-4-yl)phenyl)piperidin-4-yl)piperazin-1-yl)-2-(2,6-dioxopiperidin-3-yl)isoindoline-1,3-dione]: the IC50 was under 100 nM in data set [1] (read-out: IC50 (class symbol)); 71 nM in data set [1] (setting [5]); at least 10000 nM with A431 (EGFR-WT) cells; under 200 nM in data set [2] (read-out: IC50 (class symbol)); 49 nM in data set [2] (read-out: IC50 (value)). In addition, the AUC(0-t) in data set [3] amounted to 51000 ng·h/mL. This compound came in with a DC50 in data set [4] of under 100 nM.

Regarding `COc1cc(N2CCC(N3CCC4(CCN(c5ccc6c(c5)C(=O)N(C5CCC(=O)NC5=O)C6=O)CC4)CC3)CC2)c(-c2cnn(C)c2)cc1Nc1ncc(Br)c(Nc2ccc(-c3ccccc3)cc2P(C)(C)=O)n1` (stereo not drawn) [Compound 84, 5-(9-(1-(4-((5-bromo-4-((3-(dimethylphosphoryl)-[1,1′-biphenyl]-4-yl)amino)pyrimidin-2-yl)amino)-5-methoxy-2-(1-methyl-1H-pyrazol-4-yl)phenyl)piperidin-4-yl)-3,9-diazaspiro[5.5]undecan-3-yl)-2-(2,6-dioxopiperidin-3-yl)isoindoline-1,3-dione], the 50% inhibitory concentration (IC50) in data set [1] (read-out: IC50 (class symbol)) was under 100 nM; in data set [1] (setting [5]), 43 nM; with A431 (EGFR-WT) cells, at least 10000 nM; in data set [2] (read-out: IC50 (class symbol)) it was under 200 nM; in data set [2] (read-out: IC50 (value)) it was 47 nM. In data set [3], the AUC(0-t) stood at 4570 ng·h/mL. For the same compound, the DC50 in data set [4] was under 100 nM.

`COc1cc(N2CCN(CC3CCN(c4ccc5c(c4)C(=O)N(C4CCC(=O)NC4=O)C5=O)CC3)CC2)c(-c2cnn(C)c2)cc1Nc1ncc(Cl)c(Nc2ccc(-c3ccccc3)cc2P(C)(C)=O)n1` (stereo not drawn) [Compound 90, 5-(4-((4-(4-((5-chloro-4-((3-(dimethylphosphoryl)-[1,1′-biphenyl]-4-yl)amino)pyrimidin-2-yl)amino)-5-methoxy-2-(1-methyl-1H-pyrazol-4-yl)phenyl)piperazin-1-yl)methyl)piperidin-1-yl)-2-(2,6-dioxopiperidin-3-yl)isoindoline-1,3-dione]: the 50% inhibitory concentration (IC50) in data set [1] (read-out: IC50 (class symbol)) was under 100 nM; in data set [1] (setting [5]) it was 46 nM; in the data set with A431 (EGFR-WT) cells, at least 10000 nM; in data set [2] (read-out: IC50 (class symbol)) it was under 200 nM; in data set [2] (read-out: IC50 (value)), 68 nM. Further, in data set [3], the AUC stood at 35900 ng·h/mL. In data set [3], this compound had a half-life of 4.16 h. Also, the DC50 in data set [4] is under 100 nM.

Regarding `COc1cc(N2CCC(N3CCN(c4ccc5c(c4)C(=O)N(C4CCC(=O)NC4=O)C5=O)CC3)CC2)c(-c2cnn(C)c2)cc1Nc1ncc(Cl)c(Nc2ccc(-c3ccccc3)cc2P(C)(C)=O)n1` (stereo not drawn) [Compound 92, 5-(4-(1-(4-((5-chloro-4-((3-(dimethylphosphoryl)-[1,1′-biphenyl]-4-yl)amino)pyrimidin-2-yl)amino)-5-methoxy-2-(1-methyl-1H-pyrazol-4-yl)phenyl)piperidin-4-yl)piperazin-1-yl)-2-(2,6-dioxopiperidin-3-yl)isoindoline-1,3-dione], the IC50 in data set [1] (read-out: IC50 (class symbol)) is under 100 nM; in data set [1] (setting [5]), 71 nM; in the data set with A431 (EGFR-WT) cells, at least 10000 nM; in data set [2] (read-out: IC50 (class symbol)) it was under 200 nM; in data set [2] (read-out: IC50 (value)), 65 nM. In data set [3], this compound returned an AUC of 63000 ng·h/mL. Besides, in data set [3], the half-life is 6.88 h. This compound displayed a DC50 in data set [4] of under 100 nM.

For orientation: IC50 means the concentration needed to halve the response being measured. As usually defined, the AUC is concentration integrated over time. What is called half-life is how long it takes for the measured level to halve. What is called DC50 is the concentration giving 50% degradation. A low value points to degradation at low concentration. For orientation: AUC(0-t) means exposure summed from dosing to a finite time, without extrapolation to infinity. Read a low AUC(0-t) as low exposure.
